# Tests used:
# [1] = test system: PHA-induced IL-2 release in IL-2 and IL-4 treated (steroid resistant) PBMCs; assay: IL-2/IL-4 induced steroid resistance model in PBMCs: dexamethasone inhibition of PHA-induced IL-2 release; type: cell-based, human; conditions: for PHA-induced IL-2 level: FIG. 5
# Description: J Immunol 2009; 183; 164-171). […] Following PBMCs stimulation with mitogen phytohaemagglutinin (PHA), there is a strong correlation between cytokine secretion levels and steroid resistance as well as steroid sensitivity in vitro. Addition of IL-2, IL-4 and TNF-reduce steroid sensitivity.
# (§1) PBMCs (2×10^6) were incubated with or without IL-2 (13 ng/ml) and IL-4 (6.5 ng/ml) for 48 hours in RPMI-1640 medium containing 10% FCS and 2 mM glutamine. […] IL-2 and IL-4 stimulated PBMCs were also plated at a concentration of 10^6 cells/ml in 96-well plates ready for PHA (15 μg/mL, 24 hours) stimulation of cytokine release and detection by ELISA.
# IL-2/4 induced steroid resistance in PBMCs, a well-recognized study model, was used to evaluate potential modifiers of steroid resistance and sensitivity. PBMCs from healthy smokers were collected. Corticosteroid insensitivity or resistance was induced by adding IL-2 and IL-4 in peripheral blood mononuclear cells (PBMCs) from healthy male smokers (n=˜11). […] IL-2 levels were quantified using ELISA.
# J Immunol 2009; 183; 164-171).
# (§2) IL-2 levels were quantified using ELISA.
# [2] = test system: PHA-induced IL-2 production in PBMCs; assay: PHA-induced IL-2 production in PBMCs from healthy male smokers (no IL-2/IL-4 added), ELISA; type: cell-based, human; set-up: PR2005 IC50: unit not given here; conditions: for mean IL-2: Table 1; for % inhibition of PHA stimulation of IL-2: Table 2
# Description: PBMCs were isolated from human blood buffy coats provided by a regional blood center. Random buffy coat cells from male donors were a by-product of blood processed for clinical use and no details (i.e., personal identification and background) were provided except for tobacco use. […] PBMCs were separated using a porous high density polyethylene barrier (HISTOPAQUE from GEHealthcare Bio-Sciences AB (US). After centrifugation of blood samples in each tube (35 minutes at 800×g at room temperature, or RT), PBMCs were collected and washed twice with Hank's buffered saline solution (HBSS). PBMCs were resuspended in RPMI-1640 medium containing 10% fetal calf serum (FCS) and 15 mM glutamine and cells were counted and plated.
# as §1
# Serial dilutions of standards and PBMCs' supernatants were measured by enzyme linked immunosorbent assay to determine IL-2 at baseline and its levels after 17HPC, P4 and MAP treatments. Optical density was measured at 450 nm and corrected with 550 nm. The concentration of TL-2 was calculated using the standard curve and taking into account the supernatant dilution used. Detection limit for IL-2 is 4.0 pg/ml.
# Data are expressed as mean±SD. The efficacies of the drug treatments were analyzed by paired t-test. One-way analysis of variance was used to compare three or more matched groups and 95% CI was performed to present groups differences. All graphs indicate mean values of results or % inhibition of PHA-stimulated IL-2. IC50 values were calculated by using a sigmoidal model (BioDataFit). A p value <0.05 was considered statistically significant.
# as §2
# IL-2 levels were quantified using ELISA. IC50 values were calculated by using a sigmoidal model (BioDataFit).
# as §2, §2, §2
# [3] = FIG. 4, high dose Dexamethasone 10^−6 M
smiles,measurement,setting,value
"CCCCCC(=O)O[C@]1(C(C)=O)CC[C@H]2[C@@H]3CCC4=CC(=O)CC[C@]4(C)[C@H]3CC[C@@]21C [17HPC, 17α-HYDROXYPROGESTERONE CAPROATE]",highest improvement rate in Imax,[1]; [3],18%
same,improvement rate in Imax at all dose levels,[1]; [3],16-18%
same,PHA-induced IL-2 level,[1]; Dexamethasone 10^−10 M + 17HPC 10^−5M,1595 pg/mL
same,PHA-induced IL-2 level,[1]; Dexamethasone 10^−10 M + 17HPC 10^−7M,1805 pg/mL
same,PHA-induced IL-2 level,[1]; Dexamethasone 10^−10 M + 17HPC 10^−10 M,2119 pg/mL
same,subjects with more than 10% improvement in % maximal Dexamethasone inhibition,"[1]; FIG. 6, Dexamethasone 10^−6 M",Ten out of 11
same,PR2005 IC50,[2]; Dexamethasone 0,6.434
same,suppression of PHA induced IL-2,"[2]; FIG. 11, 17HPC add-on to Dexamethasone 10^−6 M",~100%
same,improvements in Dexamethasone efficacy (synergetic effect of combination),"[2]; FIG. 12, 17HPC with Dexamethasone",25-37%
same,mean IL-2,[2]; 17HPC 10^−5M + Dexamethasone 10^−6M,24.61 pg/mL
same,mean IL-2,[2]; 17HPC 10^−5M + Dexamethasone 10^−8M,136.2 pg/mL
same,mean IL-2,[2]; 17HPC 10^−5M + Dexamethasone 10^−10M,138.6 pg/mL
same,mean IL-2,[2]; 17HPC 10^−5M + Dexamethasone 10^−12M,176.2 pg/mL
same,mean IL-2,"[2]; 17HPC 10^−5M, Dexamethasone 0",225.6 pg/mL
same,mean IL-2,[2]; 17HPC 10^−7M + Dexamethasone 10^−6M,9.914 pg/mL
same,mean IL-2,[2]; 17HPC 10^−7M + Dexamethasone 10^−8M,229.3 pg/mL
same,mean IL-2,[2]; 17HPC 10^−7M + Dexamethasone 10^−10M,104.5 pg/mL
same,mean IL-2,[2]; 17HPC 10^−7M + Dexamethasone 10^−12M,111.6 pg/mL
same,mean IL-2,"[2]; 17HPC 10^−7M, Dexamethasone 0",466.3 pg/mL
same,mean IL-2,[2]; 17HPC 10^−10M + Dexamethasone 10^−6M,27.18 pg/mL
same,mean IL-2,[2]; 17HPC 10^−10M + Dexamethasone 10^−8M,173.5 pg/mL
same,mean IL-2,[2]; 17HPC 10^−10M + Dexamethasone 10^−10M,177.7 pg/mL
same,mean IL-2,[2]; 17HPC 10^−10M + Dexamethasone 10^−12M,132.3 pg/mL
same,mean IL-2,"[2]; 17HPC 10^−10M, Dexamethasone 0",420.6 pg/mL
same,mean IL-2,[2]; 17HPC 10^−11M + Dexamethasone 10^−6M,9.05 pg/mL
same,mean IL-2,[2]; 17HPC 10^−11M + Dexamethasone 10^−8M,167.9 pg/mL
same,mean IL-2,[2]; 17HPC 10^−11M + Dexamethasone 10^−10M,164.4 pg/mL
same,mean IL-2,[2]; 17HPC 10^−11M + Dexamethasone 10^−12M,275.2 pg/mL
same,mean IL-2,"[2]; 17HPC 10^−11M, Dexamethasone 0",448.2 pg/mL
same,% inhibition of PHA stimulation of IL-2,[2]; 17HPC 10^−5 M + Dexamethasone 10^−6 M,97%
same,% inhibition of PHA stimulation of IL-2,[2]; 17HPC 10^−5 M + Dexamethasone 10^−8 M,81%
same,% inhibition of PHA stimulation of IL-2,[2]; 17HPC 10^−5 M + Dexamethasone 10^−10 M,81%
same,% inhibition of PHA stimulation of IL-2,[2]; 17HPC 10^−5 M + Dexamethasone 10^−12 M,76%
same,% inhibition of PHA stimulation of IL-2,"[2]; 17HPC 10^−5 M, Dexamethasone 0 M",69%
same,% inhibition of PHA stimulation of IL-2,[2]; 17HPC 10^−7 M + Dexamethasone 10^−6 M,99%
same,% inhibition of PHA stimulation of IL-2,[2]; 17HPC 10^−7 M + Dexamethasone 10^−8 M,69%
same,% inhibition of PHA stimulation of IL-2,[2]; 17HPC 10^−7 M + Dexamethasone 10^−10 M,86%
same,% inhibition of PHA stimulation of IL-2,[2]; 17HPC 10^−7 M + Dexamethasone 10^−12 M,85%
same,% inhibition of PHA stimulation of IL-2,"[2]; 17HPC 10^−7 M, Dexamethasone 0 M",37%
same,% inhibition of PHA stimulation of IL-2,[2]; 17HPC 10^−10 M + Dexamethasone 10^−6 M,96%
same,% inhibition of PHA stimulation of IL-2,[2]; 17HPC 10^−10 M + Dexamethasone 10^−8 M,76%
same,% inhibition of PHA stimulation of IL-2,[2]; 17HPC 10^−10 M + Dexamethasone 10^−10 M,76%
same,% inhibition of PHA stimulation of IL-2,[2]; 17HPC 10^−10 M + Dexamethasone 10^−12 M,82%
same,% inhibition of PHA stimulation of IL-2,"[2]; 17HPC 10^−10 M, Dexamethasone 0 M",43%
same,% inhibition of PHA stimulation of IL-2,[2]; 17HPC 10^−11 M + Dexamethasone 10^−6 M,99%
same,% inhibition of PHA stimulation of IL-2,[2]; 17HPC 10^−11 M + Dexamethasone 10^−8 M,77%
same,% inhibition of PHA stimulation of IL-2,[2]; 17HPC 10^−11 M + Dexamethasone 10^−10 M,78%
same,% inhibition of PHA stimulation of IL-2,[2]; 17HPC 10^−11 M + Dexamethasone 10^−12 M,63%
same,% inhibition of PHA stimulation of IL-2,"[2]; 17HPC 10^−11 M, Dexamethasone 0 M",39%
same,IL-2 inhibition,[2]; add-on of low doses of 17HPC (10^−11 M or 10^−10 M) to lower Dexamethasone doses,≥ 78%
same,effect in basal IL-2 level,"[2]; no PHA stimulation, data not shown",no significant effect
same,PR2005 IC50,[2]; with Dexamethasone 10^−8M,6.243
same,PR2005 IC50,[2]; with Dexamethasone 10^−10M,11.64
same,PR2005 IC50,[2]; with Dexamethasone 10^−12M,10.92

# Source: US20110262502A1, “PULMONARY DELIVERY OF 17-HYDROXYPROGESTERONE CAPROATE (17-HPC)” (Prairie Pharmaceuticals LLC, priority 2010, published 2011)
